Measured values: US10941122B2, “Diaminotriazine derivatives as herbicides” (BASF SE, priority 2014, dated 2021)

Experiments:
APESV = assay: greenhouse pre-emergence herbicidal test; format: in vivo, Apera spica-venti; settings: pre-emergence method, application rate 0.250 kg/ha, scale from 0 to 100
From the text: (§1) The seeds of the test plants were sown separately for each species. For the pre-emergence treatment, the active ingredients, which had been suspended or emulsified in water, were applied directly after sowing by means of finely distributing nozzles. The containers were irrigated gently to promote germination and growth and subsequently covered with transparent plastic hoods until the plants had rooted. This cover caused uniform germination of the test plants, unless this had been impaired by the active ingredients. Depending on the species, the plants were kept at 10-25° C. or 20-35° C., respectively. The test period extended over 2 to 4 weeks. During this time, the plants were tended, and their response to the individual treatments was evaluated. Evaluation was carried out using a scale from 0 to 100. 100 means no emergence of the plants, or complete destruction of at least the aerial moieties, and 0 means no damage, or normal course of growth. A moderate herbicidal activity is given at values of at least 60, a good herbicidal activity is given at values of at least 70, and a very good herbicidal activity is given at values of at least 85. The plants used in the greenhouse experiments were of the following species: [table]

AMARE = assay: greenhouse pre-emergence herbicidal test; format: in vivo, Amaranthus retroflexus; settings: pre-emergence method, application rate 0.250 kg/ha, scale from 0 to 100
From the text: as §1

CC(C)(F)c1nc(N)nc(Nc2c(F)cccc2OC2CCCC2)n1 [Example 1, N2-[2-(Cyclopentoxy)-6-Fluoro-Phenyl]-6-(1-Fluoro-1-Methyl-Ethyl)-1,3,5-Triazine-2,4-Diamine]
herbicidal activity against APESV (APESV): good (a good herbicidal activity is given at values of at least 70)
herbicidal activity against AMARE (AMARE): very good (a very good herbicidal activity is given at values of at least 85)
